Assay results reported in patent US7109242B2, “Carboxylic compound and medicine comprising the same” (Kowa Company, Ltd., priority 2003, dated 2006).
Where a name gives a salt, the structure may show the parent alone.

Assays:
C57BL/KsJ db/db mouse = assay: Actions of lowering plasma glucose, insulin and triglyceride in vivo in db/db mice; conditions: for Reduction rate of plasma glucose / Reduction rate of plasma insulin / Reduction rate of plasma triglyceride: blood two hours after administration on 14th day; for Plasma glucose reducing action (ED25): oral once a day for 14 days, dose required for reduction of plasma glucose concentration by 25%, vehicle group as 100%
Source text: The compounds of the present invention and the aforementioned Compound A and pioglitazone hydrochloride each as a reference compound were subjected to the measurements of the actions of lowering plasma glucose, insulin, and triglyceride in vivo according to the following method (Metabolism, 48, pp34–40, 1999, Journal of Medicinal Chemistry, 44, pp2601–2611, 2001).
C57BL/KsJ db/db mouse (Journal of Clinical Investigation, 85, pp 962–967, 1990) was used as an experimental animal, which was developed in The Jackson Laboratory (USA) and is known as a model animal with obesity, hyperlipemia, hyperinsulinemia, and insulin resistance.
Bloods were collected from seven weeks old db/db mice from their orbital sinus by using heparin-treated capillary tubes. After centrifugation of the bloods, plasma was collected and then subjected to measurements of concentrations of plasma glucose, insulin, and triglyceride to divide the animals. From the next day of the day of blood collection, the administrations of the compounds were started. The compounds were orally administered once a day for 14 days. On the 14th day, blood was collected from orbital sinus two hours after the administration of the compounds. Plasma was collected, and subjected to measurements of concentrations of plasma glucose, insulin, and triglyceride.
The dose required for reduction of plasma glucose concentration by 25% (ED25) was obtained using the value of the vehicle administered group as 100% (Arznimittel-Forschung, 40, pp156–162, 1990).

PPAR γ = biological target: T1, PPAR γ (Homo sapiens, UniProt P37231); conditions: mode of action of thiazolidinedione type compounds; cited from earlier work
T1 sequence (P37231 1-505): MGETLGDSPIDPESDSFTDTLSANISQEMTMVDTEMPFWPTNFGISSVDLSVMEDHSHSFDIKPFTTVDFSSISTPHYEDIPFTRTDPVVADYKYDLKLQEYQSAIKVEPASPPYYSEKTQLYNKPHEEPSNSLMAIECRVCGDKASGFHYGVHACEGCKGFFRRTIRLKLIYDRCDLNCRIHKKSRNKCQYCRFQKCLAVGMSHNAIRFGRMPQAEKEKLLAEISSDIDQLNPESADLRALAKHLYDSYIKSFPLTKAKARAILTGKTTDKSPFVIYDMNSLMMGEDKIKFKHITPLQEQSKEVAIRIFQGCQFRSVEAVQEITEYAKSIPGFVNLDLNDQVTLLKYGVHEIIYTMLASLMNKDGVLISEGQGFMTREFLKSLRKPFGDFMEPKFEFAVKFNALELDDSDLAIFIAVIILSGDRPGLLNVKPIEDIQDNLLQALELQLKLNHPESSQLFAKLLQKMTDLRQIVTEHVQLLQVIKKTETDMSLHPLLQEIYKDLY

[1] = 3 mg/kg orally once a day for 14 days
[2] = 10 mg/kg orally once a day for 14 days
[3] = 30 mg/kg orally once a day for 14 days
[4] = 0.5 mg/kg orally once a day for 14 days, 0.5 mg/kg
[5] = 1.5 mg/kg orally once a day for 14 days, 1.5 mg/kg
[6] = 5 mg/kg orally once a day for 14 days, 5 mg/kg
[7] = 1 mg/kg orally once a day for 14 days

Row | Compound | Reduction rate of plasma glucose (C57BL/KsJ db/db mouse; [1]) | Reduction rate of plasma insulin (C57BL/KsJ db/db mouse; [1]) | Reduction rate of plasma triglyceride (C57BL/KsJ db/db mouse; [1]) | Reduction rate of plasma glucose (C57BL/KsJ db/db mouse; [2]) | Reduction rate of plasma insulin (C57BL/KsJ db/db mouse; [2]) | Reduction rate of plasma triglyceride (C57BL/KsJ db/db mouse; [2]) | Reduction rate of plasma glucose (C57BL/KsJ db/db mouse; [3]) | Reduction rate of plasma insulin (C57BL/KsJ db/db mouse; [3]) | Reduction rate of plasma triglyceride (C57BL/KsJ db/db mouse; [3]) | Plasma glucose reducing action (ED25) (C57BL/KsJ db/db mouse) [mg/kg] | further results
1 | O=C(O)C(Cl)(Cl)CCCCCCCC(O)CCc1ccc(Cl)cc1 (stereo not shown) [Example 2(4), 2,2-dichloro-12-(4-chlorophenyl)-10-hydroxydodecanoic acid] | 44.4 ± 17.0 | −12.5 ± 58.1 | 53.2 ± 6.9 | 66.6 ± 4.1 | 39.1 ± 21.3 | 54.1 ± 5.5 | 75.2 ± 3.1 | 64.3 ± 10.1 | 55.7 ± 6.3 | 0.6 | Plasma glucose reducing action (ED25) (C57BL/KsJ db/db mouse; listed as Example 2 (4)): 0.6 mg/kg
2 | O=C(O)C(Cl)(Cl)CCCCCCCC(O)CCc1ccc(Cl)cc1 (single isomer, unassigned; (+)) [Example 5(4), (+)-2,2-dichloro-12-(4-chlorophenyl)-10-hydroxydodecanoic acid] | – | – | – | – | – | – | – | – | – | 0.5 | Reduction rate of plasma glucose (C57BL/KsJ db/db mouse; [4]): 20.7 ± 14.3; Reduction rate of plasma insulin (C57BL/KsJ db/db mouse; [4]): −22.0 ± 84.1; Reduction rate of plasma triglyceride (C57BL/KsJ db/db mouse; [4]): 42.0 ± 17.3; Reduction rate of plasma glucose (C57BL/KsJ db/db mouse; [5]): 40.6 ± 5.8; Reduction rate of plasma insulin (C57BL/KsJ db/db mouse; [5]): 39.5 ± 37.5; Reduction rate of plasma triglyceride (C57BL/KsJ db/db mouse; [5]): 48.3 ± 6.9; Reduction rate of plasma glucose (C57BL/KsJ db/db mouse; [6]): 42.4 ± 11.4; Reduction rate of plasma insulin (C57BL/KsJ db/db mouse; [6]): 43.8 ± 26.3; Reduction rate of plasma triglyceride (C57BL/KsJ db/db mouse; [6]): 44.6 ± 9.7; Plasma glucose reducing action (ED25) (C57BL/KsJ db/db mouse; listed as Example 5 (4)): 0.5 mg/kg
3 | O=C(O)C(Cl)(Cl)CCCCCCCC(O)CCc1ccc(Cl)cc1 (single isomer, unassigned; (-)) [Example 5(5), (−)-2,2-dichloro-12-(4-chlorophenyl)-10-hydroxydodecanoic acid] | – | – | – | – | – | – | – | – | – | 1.7 | Reduction rate of plasma glucose (C57BL/KsJ db/db mouse; [4]): −10.3; Reduction rate of plasma insulin (C57BL/KsJ db/db mouse; [4]): 20.8 ± 32.0; Reduction rate of plasma triglyceride (C57BL/KsJ db/db mouse; [4]): 23.0 ± 13.8; Reduction rate of plasma glucose (C57BL/KsJ db/db mouse; [5]): 28.5 ± 10.7; Reduction rate of plasma insulin (C57BL/KsJ db/db mouse; [5]): 20.4 ± 38.0; Reduction rate of plasma triglyceride (C57BL/KsJ db/db mouse; [5]): 40.5 ± 15.3; Reduction rate of plasma glucose (C57BL/KsJ db/db mouse; [6]): 49.2 ± 9.6; Reduction rate of plasma insulin (C57BL/KsJ db/db mouse; [6]): 68.9 ± 13.2; Reduction rate of plasma triglyceride (C57BL/KsJ db/db mouse; [6]): 37.6 ± 11.3
4 | CCc1ccc(CCOc2ccc(CC3SC(=O)NC3=O)cc2)nc1 (stereo not shown) [Pioglitazone hydrochloride, reference compound] | 13.4 ± 18.3 | −24.7 ± 119.3 | 9.4 ± 15.9 | 22.3 ± 22.8 | −18.7 ± 52.5 | 25.4 ± 16.9 | 45.2 ± 21.2 | 13.9 ± 22.7 | 38.2 ± 8.1 | 8.3 | –
5 | O=C(O)C(Cl)(Cl)CCCCCCCCCC(O)c1ccc(Cl)cc1 (stereo not shown) [Example 3(4), 2,2-dichloro-12-(4-chlorophenyl)-12-hydroxydodecanoic acid] | 29.3 ± 28.7 | −2.8 ± 46.6 | 23.2 ± 24.7 | 53.4 ± 14.7 | 39.0 ± 10.3 | 40.6 ± 8.9 | 74.5 ± 3.0 | 61.7 ± 18.5 | 25.8 ± 24.7 | 2.4 | –
6 | O=C(O)C(Cl)(Cl)CCCCCCCCCCc1ccc(Cl)cc1 [Compound A] | 25.4 ± 17.7 | 7.4 ± 18.7 | 27.5 ± 17.5 | 65.3 ± 5.0 | 10.7 ± 61.6 | 54.6 ± 4.1 | – | – | – | 2.8 | Reduction rate of plasma glucose (C57BL/KsJ db/db mouse; [7]): −5.0 ± 19.5; Reduction rate of plasma insulin (C57BL/KsJ db/db mouse; [7]): 0.7 ± 77.6; Reduction rate of plasma triglyceride (C57BL/KsJ db/db mouse; [7]): 23.4 ± 15.3; PPAR γ activating action (PPAR γ): no PPAR γ activating action
7 | O=C(O)C(Cl)(Cl)CCCCCCCCC(O)Cc1ccc(Cl)cc1 (stereo not shown) [Example 4(4), 2,2-dichloro-12-(4-chlorophenyl)-11-hydroxydodecanoic acid] | 35.0 ± 21.2 | −19.8 ± 71.8 | 45.5 ± 13.9 | 65.2 ± 8.0 | 20.3 ± 24.9 | 58.8 ± 3.7 | 67.2 ± 6.8 | 51.1 ± 20.2 | 54.1 ± 6.6 | 1.1 | –
